Data as given in US10065972B2, “Bicyclic or tricyclic heterocyclic compound” (MITSUBISHI TANABE PHARMA CORPORATION, priority 2014, dated 2018).

Target: human recombinant KAT-II (Homo sapiens (Human), UniProt Q8N5Z0)
Test: KAT-II inhibitory test
Assay type: biochemical
Conditions: 3.0 μmol/L kynurenine, 37° C., 1 hr, pH 8.0; kynurenic acid quantified by HPLC
Outline: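 Kynurenic acid formation was measured by HPLC fluorescence (354 nm excitation, 460 nm emission) against an external standard curve. The substrate was 3.0 μmol/L kynurenine with 10 μmol/L pyridoxal phosphate, at pH 8.0 Tris-acetate, 37 °C for 1 hr, using 2.0 ng/μL amylose-purified N-terminal His/MBP-tagged recombinant enzyme. Duplicate measurements were made per concentration.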

Chain of human recombinant KAT-II (Q8N5Z0 30-425): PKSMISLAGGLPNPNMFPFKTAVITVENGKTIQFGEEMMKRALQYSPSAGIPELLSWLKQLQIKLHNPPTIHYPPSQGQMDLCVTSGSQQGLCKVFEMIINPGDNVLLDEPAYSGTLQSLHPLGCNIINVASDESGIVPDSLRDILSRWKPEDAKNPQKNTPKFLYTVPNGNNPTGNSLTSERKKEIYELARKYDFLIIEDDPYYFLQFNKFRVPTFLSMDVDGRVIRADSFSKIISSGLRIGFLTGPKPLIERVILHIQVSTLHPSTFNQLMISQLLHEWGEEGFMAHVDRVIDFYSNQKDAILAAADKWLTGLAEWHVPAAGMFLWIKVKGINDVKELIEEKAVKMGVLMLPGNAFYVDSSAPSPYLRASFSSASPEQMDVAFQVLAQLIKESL

| Structure (SMILES) | IC50 [nM] |
| --- | --- |
| CCc1nc2sc(N3CCC[C@@H]3C(=O)NCc3ccccc3Cl)nn2c(=O)c1F [Example 678, (R)-N-(2-chlorobenzyl)-1-(7-ethyl-6-fluoro-5-oxo-5H-[1,3,4]thiadiazolo[3,2-a]pyrimidin-2-yl)pyrrolidine-2-carboxamide] | 19 |
| CCc1nc2sc(N3CCC[C@@H]3C(=O)NCc3ncccn3)nn2c(=O)c1F [Example 684, (R)-1-(7-ethyl-6-fluoro-5-oxo-5H-[1,3,4]thiadiazolo[3,2-a]pyrimidin-2-yl)-N-[(pyrimidin-2-yl)methyl]pyrrolidine-2-carboxamide] | 11000 |
| CCc1nc2sc(N3CCC[C@@H]3C(=O)NCc3cnc(C)cn3)nn2c(=O)c1F [Example 685, (R)-1-(7-ethyl-6-fluoro-5-oxo-5H-[1,3,4]thiadiazolo[3,2-a]pyrimidin-2-yl)-N-[(5-methylpyrazin-2-yl)methyl]pyrrolidine-2-carboxamide] | 2200 |
| CCc1nc2sc(N3CCC[C@@H]3C(=O)NCc3nnc4ccccn34)nn2c(=O)c1F [Example 686, (R)-1-(7-ethyl-6-fluoro-5-oxo-5H-[1,3,4]thiadiazolo[3,2-a]pyrimidin-2-yl)-N-[([1,2,4]triazolo[4,3-a]pyridin-3-yl)methyl]pyrrolidine-2-carboxamide] | 32000 |
| CCc1nc2sc(N3CCC[C@@H]3C(=O)NCc3ccc(Cl)cc3Cl)nn2c(=O)c1F [Example 688, (R)-N-(2,4-dichlorobenzyl)-1-(7-ethyl-6-fluoro-5-oxo-5H-[1,3,4]thiadiazolo[3,2-a]pyrimidin-2-yl)pyrrolidine-2-carboxamide] | 29 |
| Cc1nc2sc(N3CCC[C@@H]3C(=O)NCc3ccccc3)nn2c(=O)c1C1=CCOCC1 [Example 698, (R)-N-benzyl-1-[6-(3,6-dihydro-2H-pyran-4-yl)-7-methyl-5-oxo-5H-[1,3,4]thiadiazolo[3,2-a]pyrimidin-2-yl]pyrrolidine-2-carboxamide] | 67 |
| CCc1cc(=O)n2nc(N3CCC[C@@H]3C(=O)NCc3ccccc3)sc2c1 [Example 699, (R)-N-benzyl-1-(7-ethyl-5-oxo-5H-[1,3,4]thiadiazolo[3,2-a]pyridin-2-yl)pyrrolidine-2-carboxamide] | 230 |
| CCc1c(Cl)c(=O)n2nc(N3CCC[C@@H]3C(=O)NCc3ccccc3)sc2c1Cl [Example 701, (R)-N-benzyl-1-(6,8-dichloro-7-ethyl-5-oxo-5H-[1,3,4]thiadiazolo[3,2-a]pyridin-2-yl)pyrrolidine-2-carboxamide] | 50 |

Other lines, results leading:

| IC50 [nM] | Structure (SMILES) |
| --- | --- |
| 110 | CCc1nc2ccc(N3CCC[C@@H]3C(=O)NCc3ccccc3)nc2c(=O)n1C [Example 703, (R)-N-benzyl-1-(2-ethyl-3-methyl-4-oxo-3,4-dihydropyrido[3,2-d]pyrimidin-6-yl)pyrrolidine-2-carboxamide] |
| 170 | Cc1nc2ccc(N3CCC[C@@H]3C(=O)NCc3ccccc3)nc2c(=O)n1CC(F)(F)F [Example 706, (R)-N-benzyl-1-[2-methyl-4-oxo-3-(2,2,2-trifluoroethyl)-3,4-dihydropyrido[3,2-d]pyrimidin-6-yl]pyrrolidine-2-carboxamide] |
| 680 | Cn1c(C(F)(F)F)nc2ccc(N3CCC[C@@H]3C(=O)NCc3ccccc3)nc2c1=O [Example 707, (R)-N-benzyl-1-(3-methyl-4-oxo-2-trifluoromethyl-3,4-dihydropyrido[3,2-d]pyrimidin-6-yl)pyrrolidine-2-carboxamide] |
| 190 | O=C(NCc1ccccc1)[C@H]1CCCN1c1ccc2nc(C3(Cl)CC3)[nH]c(=O)c2n1 [Example 711, (R)-N-benzyl-1-[2-(1-chlorocyclopropyl)-4-oxo-3,4-dihydropyrido[3,2-d]pyrimidin-6-yl]pyrrolidine-2-carboxamide] |
| 62 | CC(C)c1nc2ccc(N3CCC[C@@H]3C(=O)NCc3ccccc3)nc2c(=O)[nH]1 [Example 712, (R)-N-benzyl-1-[4-oxo-2-(propan-2-yl)-3,4-dihydropyrido[3,2-d]pyrimidin-6-yl]pyrrolidine-2-carboxamide] |
| 88 | O=C(NCc1ccccc1)[C@H]1CCCN1c1ccc2nc(-c3ccccc3F)[nH]c(=O)c2n1 [Example 713, (R)-N-benzyl-1-[2-(2-fluorophenyl)-4-oxo-3,4-dihydropyrido[3,2-d]pyrimidin-6-yl]pyrrolidine-2-carboxamide] |
| 590 | O=C(NCc1ccccc1)[C@H]1CCCN1c1ccc2nc(-c3ccccc3)cc(=O)n2n1 [Example 714, (R)-N-benzyl-1-(4-oxo-2-phenyl-4H-pyrimido[1,2-b]pyridazin-7-yl)pyrrolidine-2-carboxamide] |
| 310 | CCCc1cc(=O)n2nc(N3CCC[C@@H]3C(=O)NC3(c4ccccc4)CC3)ccc2n1 [Example 718, (R)-1-(4-oxo-2-propyl-4H-pyrimido[1,2-b]pyridazin-7-yl)-N-(1-phenylcyclopropyl)pyrrolidine-2-carboxamide] |
| 550 | CC(C)c1cc(=O)n2nc(N3CCC[C@@H]3C(=O)NCc3ccccc3)ccc2n1 [Example 720, (R)-N-benzyl-1-[4-oxo-2-(propan-2-yl)-4H-pyrimido[1,2-b]pyridazin-7-yl]pyrrolidine-2-carboxamide] |
| 89 | CC(C)c1nc2ccc(N3CCC[C@@H]3C(=O)NCc3ccccc3)nn2c(=O)c1F [Example 722, (R)-N-benzyl-1-[3-fluoro-4-oxo-2-(propan-2-yl)-4H-pyrimido[1,2-b]pyridazin-7-yl]pyrrolidine-2-carboxamide] |
| 24 | O=C(NCc1ccccc1)[C@H]1CCCN1c1nc2c(=O)[nH]c(N3CCCCC3)nc2s1 [Example 728, (R)-N-benzyl-1-[7-oxo-5-(piperidin-1-yl)-6,7-dihydro[1,3]thiazolo[5,4-d]pyrimidin-2-yl]pyrrolidine-2-carboxamide] |
